Assay results published in patent US8653127B2, “Bicyclic pyrazolo-heterocycles” (Cara Therapeutics, Inc., priority 2009, dated 2014).
Read-outs that look alike come from different tables or passages of the source.

How the values were obtained:
[1] = biological target: human CB1 receptor (hCB1) (Homo sapiens, UniProt P21554); experiment: cAMP assay, agonist/inverse agonist activity at human CB1 receptor; type: cell-based; conditions: hCB1R, read-out: EC50 at hCB1R (Potency at Human CB1 determined by cAMP Assay)
Method: The ability of each of the compounds to act as agonists or inverse agonists at human CB2 and CB 1 receptors (hCB2, hCB 1, respectively) and at the rat CB2 receptor (rCB2) was determined by measuring changes in intracellular cyclic AMP (cAMP) levels as described in U.S. Pat. No. 7,517,874.
TR-FRET was measured using a 330-380 nm excitation filter, 615 nm and 665 nm emission filters, dichroic mirror 380 nm and Z=10 mm. cAMP concentrations in each well were back-calculated from a cAMP standard curve run concurrently during each assay. Each plate contained 16 wells of forskolin stimulated cells and 16 wells of forskolin plus 1 μM CP55,940-treated cells. Concentrations of cAMP were expressed as a percent of the difference of these two groups of wells. Concentration-response data including EC50 (the concentration of compound producing 50% of the maximal response) and intrinsic activity (the percent maximal activation compared to full activation by CP55,940) were determined using a four-parameter non-linear regression algorithm (CambridgeSoft Bioassay).

[2] = biological target: human CB2 receptor (hCB2) (Homo sapiens, UniProt P34972); experiment: cAMP assay, agonist/inverse agonist activity at human CB2 receptor; type: cell-based
Method: TR-FRET was measured using a 330-380 nm excitation filter, 615 nm and 665 nm emission filters, dichroic mirror 380 nm and Z=10 mm. cAMP concentrations in each well were back-calculated from a cAMP standard curve run concurrently during each assay. Each plate contained 16 wells of forskolin stimulated cells and 16 wells of forskolin plus 1 μM CP55,940-treated cells. Concentrations of cAMP were expressed as a percent of the difference of these two groups of wells.

[3] = system: Complete Freund's Adjuvant (CFA) model of inflammatory pain; experiment: Anti-hyperalgesia in CFA inflammatory pain model (paw withdrawal latency to thermal stimulus); type: in vivo, male Sprague-Dawley rats; conditions: PO dose 3 mg/kg, 1 hr after dosing (24 hr after CFA), rat, read-out: % MPE (1 hr), paw withdrawal latency after CFA injection
Method: The anti-hyperalgesic effects of test compounds in the Complete Freund's Adjuvant (CFA) model of inflammatory pain were determined essentially as described in U.S. Pat. No. 7,517,874 using male Sprague-Dawley rats (Hsd: Sprague-Dawley®SD®, Harlan, Indianapolis, Ind.) weighing 200-300 grams.
Test compounds were prepared in a Cremaphor vehicle mixture of 1:1:18 CremophorEL:ethanol:water. Cremophor was obtained from Sigma Chemical (St. Louis, Mo.). Vehicle mixture or vehicle mixture+test compound were each administered p.o.
Assessment of thermal hyperalgesia: Baseline and post-treatment paw withdrawal latencies to a noxious thermal stimulus were measured using a plantar test apparatus (Ugo Basile; obtained from Stoelting, Wood Dale, Ill.). This apparatus generates an infrared heat source that is linearly increasing in intensity. To avoid tissue damage, the power to the heat source was cut off after 20 seconds.
Paw withdrawal latency is defined as the time required for the rat to flick its paw away from the thermal stimulus. Ibuprofen (100 mg/kg, p.o.) was used as the positive control. Paw withdrawal latencies (in seconds) were measured before (naïve paw latency, L1) and 24 hr following (CFA-inflamed paw latency, L2) a single intraplantar injection of 0.1 mL CFA (Sigma-Aldrich, cat F5881, Mycobacterium tuberculosis 1 mg/ml).
Test compounds were administered orally 23 hours following CFA injection; i.e., 1 hour prior to thermal assessment (compound treated CFA-inflamed paw latency, L3). The mean paw withdrawal latency and standard error of the mean (SEM) was determined for the injured paws for each treatment group.
Data were expressed as percent maximum percent effect (% MPE) defined as the percentage of restoration of latency of test compound-treated CFA inflamed paw as compared to the naïve paw latency.

Chain of human CB1 receptor (hCB1) (P21554 whole entry): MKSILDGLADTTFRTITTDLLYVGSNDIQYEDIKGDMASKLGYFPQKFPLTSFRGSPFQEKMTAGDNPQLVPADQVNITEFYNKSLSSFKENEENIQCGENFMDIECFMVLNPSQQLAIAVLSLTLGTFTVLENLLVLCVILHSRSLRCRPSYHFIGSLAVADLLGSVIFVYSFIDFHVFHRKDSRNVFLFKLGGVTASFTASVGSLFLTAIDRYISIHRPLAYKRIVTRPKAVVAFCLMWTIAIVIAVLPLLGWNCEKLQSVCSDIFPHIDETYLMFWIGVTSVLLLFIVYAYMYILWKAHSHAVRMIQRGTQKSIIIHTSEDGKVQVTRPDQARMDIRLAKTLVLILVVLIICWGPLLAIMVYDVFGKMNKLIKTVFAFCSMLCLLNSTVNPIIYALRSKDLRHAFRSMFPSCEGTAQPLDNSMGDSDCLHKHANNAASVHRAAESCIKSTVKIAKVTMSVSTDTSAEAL
Chain of human CB2 receptor (hCB2) (P34972 whole entry): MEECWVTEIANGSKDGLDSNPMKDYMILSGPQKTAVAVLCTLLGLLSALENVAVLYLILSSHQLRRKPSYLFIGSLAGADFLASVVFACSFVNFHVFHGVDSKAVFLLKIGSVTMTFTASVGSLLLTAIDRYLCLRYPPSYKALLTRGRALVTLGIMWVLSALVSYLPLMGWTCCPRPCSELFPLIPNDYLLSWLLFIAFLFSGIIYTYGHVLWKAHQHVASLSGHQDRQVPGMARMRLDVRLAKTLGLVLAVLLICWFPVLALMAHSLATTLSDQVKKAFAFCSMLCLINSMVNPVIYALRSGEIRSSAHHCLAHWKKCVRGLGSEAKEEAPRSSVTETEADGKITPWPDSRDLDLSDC

Compound: CC(C)(C)[C@H](NC(=O)c1nn(-c2ccc(F)c(F)c2)c2c1CCOC2)C(=O)NCCO [Compound 116, (S)-1-(3,4-difluorophenyl)-N-(1-(2-hydroxyethylamino)-3,3-dimethyl-1-oxobutan-2-yl)-1,4,5,7-tetrahydropyrano[3,4-c]pyrazole-3-carboxamide]
- EC50 [1]: < 1000 nM
- EC50 [2]: < 1000 nM
- inhibition in vivo at 3 mg/kg [3]: 60%

Compound: CNC(=O)[C@@H](NC(=O)c1nn(-c2ccc(F)c(F)c2)c2c1COCC2)C(C)(C)C [Compound 114, (S)-1-(3,4-difluorophenyl)-N-(3,3-dimethyl-1-(methylamino)-1-oxobutan-2-yl)-1,4,6,7-tetrahydropyrano[4,3-c]pyrazole-3-carboxamide]
- EC50 [1]: < 1000 nM
- EC50 ([2]; hCB2R, cAMP assay, read-out: EC50 at hCB2R (Potency at Human CB2 determined by cAMP Assay)): < 1000 nM
- inhibition in vivo at 3 mg/kg [3]: 41%

Compound: CC(C)(C)[C@H](NC(=O)c1nn(-c2ccc(F)c(F)c2)c2c1COCC2)C(=O)NCCO [Compound 115, (S)-1-(3,4-difluorophenyl)-N-(1-(2-hydroxyethylamino)-3,3-dimethyl-1-oxobutan-2-yl)-1,4,6,7-tetrahydropyrano[4,3-c]pyrazole-3-carboxamide]
- EC50 [1]: < 1000 nM
- EC50 [2]: < 1000 nM
- inhibition in vivo at 3 mg/kg [3]: 35%
